Publication PMC10139140, “Synthesis of Novel 2-(Cyclopentylamino)thiazol-4(5H)-one Derivatives with Potential Anticancer, Antioxidant, and 11β-HSD Inhibitory Activities” (International Journal of Molecular Sciences, 2023)

What was measured:
[1] = target: T1, 11β-HSD2 (Homo sapiens, UniProt P80365); assay: Inhibition of 11β-HSD2 (cortisol to cortisone, human microsomes, cortisol ELISA); type: biochemical; conditions: 2.5 h, 37 °C
T1 construct: Human liver microsomes were used as a source of 11β-HSD2 enzyme; tissue XenoTech Lot No. 1710160; host or cells: human kidney microsomes, mixed gender (method text says human liver microsomes)
T1 sequence (P80365 1-405): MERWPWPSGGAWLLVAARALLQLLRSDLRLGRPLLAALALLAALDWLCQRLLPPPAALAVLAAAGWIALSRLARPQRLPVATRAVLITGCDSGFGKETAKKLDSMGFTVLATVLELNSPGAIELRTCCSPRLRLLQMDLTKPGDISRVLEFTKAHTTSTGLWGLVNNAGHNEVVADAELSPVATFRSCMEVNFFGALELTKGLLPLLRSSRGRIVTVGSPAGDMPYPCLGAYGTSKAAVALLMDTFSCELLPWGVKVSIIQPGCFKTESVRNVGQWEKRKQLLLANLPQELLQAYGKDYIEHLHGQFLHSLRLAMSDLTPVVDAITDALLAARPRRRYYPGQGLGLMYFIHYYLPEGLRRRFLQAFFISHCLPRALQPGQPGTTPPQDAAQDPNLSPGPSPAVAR
Description: The resulting solution with a final volume of 100 µL was incubated for 2.5 h at 37 °C. […] The level of unreacted cortisol was measured by a commercially available ELISA kit.

[2] = tested on: glioma (U-118 MG); assay: MTS metabolic activity assay, U-118 MG cells; type: cell-based; conditions: Homo sapiens, U-118-MG, U118-MG, 72 h, read-out: Cell metabolic activity (MTS), % of untreated control
Description: (§1) The BJ (CRL-2522), Caco-2 (HTB-37), PANC-1 (CRL-1469), U-118 MG (HTB-15), SK-MEL-30 (ACC 151), and MDA-MB-231 (HTB-26) cell lines were purchased from ATCC (Manassas, VA, USA) or DSMZ (Braunschweig, GERMANY). Cells were cultured in accordance with manufacturers' recommendations in a DMEM, MEM, or RPMI-1640 (Sigma, Saint Louis, MO, USA; Gibco, Waltham, MA, USA), supplemented with 10% FBS, except for Caco-2 (20%) (Thermo Fisher Scientific, Waltham, MA, USA) and 1% antibiotic mix solution (penicillin, streptomycin; Thermo Fisher Scientific, Waltham, MA, USA) in a humidified atmosphere with 5% CO2 at 37 °C. All cell lines were cultured in T75 cell culture flasks or cell culture dishes to reach 80–90% confluency and seeded at a standard density of 5 × 10^3 cells/0.32 cm^2, except for BJ cells at 2 × 10^3 cells/0.32 cm^2.
(§2) The MTS ((MTS: 3-(4,5-dimethylthiazol-2-yl)-5-(3-carboxymethoxyphenyl)-2-(4-sulfophenyl)-2H-tetrazolium)) assay was performed following previously reported method. Briefly, cells were seeded at a standard density into 96-well flat-bottom plates and incubated for 24 h, followed by the treatment. The various concentrations of compounds were prepared and treated for the next 72 h. MTS solution was added for 3h and incubated at standard conditions, protected from light. Finally, the absorbance was read at […] and 620 nm wavelengths using a Synergy H1 microplate reader (BioTek, Santa Clara, CA, USA). The results are presented as %, while untreated control cells were considered 100%.

[3] = target: T2, 11β-HSD1 (Homo sapiens, UniProt P28845); assay: Inhibition of 11β-HSD1 (cortisone to cortisol, human liver microsomes, cortisol ELISA); type: biochemical
T2 construct: Human liver microsomes were used as a source of 11β-HSD1 enzyme; tissue XenoTech Lot No. 1410013; host or cells: pooled human liver microsomes, mixed gender
Summary of the method: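 Human liver microsomal conversion of cortisone to cortisol, incubated 2.5 h at 37 °C and stopped with 18β-glycyrrhetinic acid. Cortisol was quantified by ELISA against inhibitor-free controls.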

[4] = tested on: human breast carcinoma (MDA-MB-231); assay: MTS metabolic activity assay, MDA-MB-231 cells; type: cell-based; conditions: 72 h
Description: as §1, §2

[5] = tested on: BJ cells; assay: MTS metabolic activity assay, BJ cells; type: cell-based; conditions: Homo sapiens, 72 h, read-out: Cell metabolic activity (MTS), % of untreated control
Description: as §1, §2

[6] = tested on: human colon carcinoma (Caco-2); assay: MTS metabolic activity assay, Caco-2 cells; type: cell-based; conditions: Homo sapiens, 72 h, read-out: Cell metabolic activity (MTS), % of untreated control
Description: as §1, §2

[7] = tested on: human pancreatic carcinoma (PANC-1); assay: MTS metabolic activity assay, PANC-1 cells; type: cell-based; conditions: Homo sapiens, 72 h, read-out: Cell metabolic activity (MTS), % of untreated control
Description: as §1, §2

[8] = tested on: skin melanoma (SK-MEL-30); assay: MTS metabolic activity assay, SK-MEL-30 cells; type: cell-based; conditions: 72 h
Description: as §1, §2

T2 sequence (P28845 whole entry): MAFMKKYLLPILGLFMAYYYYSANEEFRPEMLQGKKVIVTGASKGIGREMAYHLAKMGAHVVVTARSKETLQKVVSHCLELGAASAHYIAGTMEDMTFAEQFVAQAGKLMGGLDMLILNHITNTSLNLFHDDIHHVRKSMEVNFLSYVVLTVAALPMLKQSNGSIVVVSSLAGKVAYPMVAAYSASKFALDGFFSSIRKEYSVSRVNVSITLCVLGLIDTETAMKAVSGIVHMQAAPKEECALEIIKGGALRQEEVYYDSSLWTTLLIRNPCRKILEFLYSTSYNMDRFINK

## CCCC1SC(NC2CCCC2)=NC1=O (centres unmarked) [Compound 3c, 2-(cyclopentylamino)-5-propylthiazol-4(5H)-one]
[1]
  inhibition at 10 µM: 37.7 ± 6.07%
[2]; 10 µM
  viability at 10 µM: 111%
[2]; 20 µM
  viability at 20 µM: 110%
[2]; 50 µM
  viability at 50 µM: 110%
[2]; 100 µM
  viability at 100 µM: 114%
[2]; 200 µM
  viability at 200 µM: 113%
[2]; 300 µM
  viability at 300 µM: 112%
[2]; 500 µM
  viability at 500 µM: 112%
[3]
  IC50: 2750 ± 120 nM
[3]; 10 µM, 2.5 h, 37 °C
  inhibition at 10 µM: 56.6 ± 6.11%
[4]; Homo sapiens, MDA-MB-231, 10 µM, read-out: Cell metabolic activity (MTS), % of untreated control
  viability at 10 µM: 101%
[4]; Homo sapiens, MDA-MB-231, 20 µM, read-out: Cell metabolic activity (MTS), % of untreated control
  viability at 20 µM: 102%
[4]; Homo sapiens, MDA-MB-231, 50 µM, read-out: Cell metabolic activity (MTS), % of untreated control
  viability at 50 µM: 99.1%
[4]; Homo sapiens, MDA-MB-231, 100 µM, read-out: Cell metabolic activity (MTS), % of untreated control
  viability at 100 µM: 97.4%
[4]; Homo sapiens, MDA-MB-231, 200 µM, read-out: Cell metabolic activity (MTS), % of untreated control
  viability at 200 µM: 88.4%
[4]; Homo sapiens, MDA-MB-231, 300 µM, read-out: Cell metabolic activity (MTS), % of untreated control
  viability at 300 µM: 75.9%
[4]; Homo sapiens, MDA-MB-231, 500 µM, read-out: Cell metabolic activity (MTS), % of untreated control
  viability at 500 µM: 55%
[4]; MDA-MB-231, higher concentrations, range given for the most effective substances together
  cell viability, decreases to: 20–65%
[5]; 10 µM
  viability at 10 µM: 98.2%
[5]; 20 µM
  viability at 20 µM: 99.7%
[5]; 50 µM
  viability at 50 µM: 102%
[5]; 100 µM
  viability at 100 µM: 108%
[5]; 200 µM
  viability at 200 µM: 112%
[5]; 300 µM
  viability at 300 µM: 111%
[5]; 500 µM
  viability at 500 µM: 115%
[6]; Caco-2, 10 µM
  viability at 10 µM: 88.1%
[6]; Caco-2, 20 µM
  viability at 20 µM: 86.6%
[6]; Caco-2, 50 µM
  viability at 50 µM: 87.6%
[6]; Caco-2, 100 µM
  viability at 100 µM: 82%
[6]; Caco-2, 200 µM
  viability at 200 µM: 86.1%
[6]; Caco-2, 300 µM
  viability at 300 µM: 83.1%
[6]; Caco-2, 500 µM
  viability at 500 µM: 68.5%
[7]; PANC-1, 10 µM
  viability at 10 µM: 108%
[7]; PANC-1, 20 µM
  viability at 20 µM: 106%
[7]; PANC-1, 50 µM
  viability at 50 µM: 112%
[7]; PANC-1, 100 µM
  viability at 100 µM: 114%
[7]; PANC-1, 200 µM
  viability at 200 µM: 116%
[7]; PANC-1, 300 µM
  viability at 300 µM: 115%
[7]; PANC-1, 500 µM
  viability at 500 µM: 122%
[8]; Homo sapiens, SK-MEL-30, 10 µM, read-out: Cell metabolic activity (MTS), % of untreated control
  viability at 10 µM: 101%
[8]; Homo sapiens, SK-MEL-30, 20 µM, read-out: Cell metabolic activity (MTS), % of untreated control
  viability at 20 µM: 102%
[8]; Homo sapiens, SK-MEL-30, 50 µM, read-out: Cell metabolic activity (MTS), % of untreated control
  viability at 50 µM: 101%
[8]; Homo sapiens, SK-MEL-30, 100 µM, read-out: Cell metabolic activity (MTS), % of untreated control
  viability at 100 µM: 101%
[8]; Homo sapiens, SK-MEL-30, 200 µM, read-out: Cell metabolic activity (MTS), % of untreated control
  viability at 200 µM: 95.9%
[8]; Homo sapiens, SK-MEL-30, 300 µM, read-out: Cell metabolic activity (MTS), % of untreated control
  viability at 300 µM: 75%
[8]; Homo sapiens, SK-MEL-30, 500 µM, read-out: Cell metabolic activity (MTS), % of untreated control
  viability at 500 µM: 45.5%
[8]; SK-MEL-30, higher concentrations, range given for the most effective substances together
  cell viability, decreases to: 20–65%
